Among the data in patent US11053235B2, “Substituted 1,4-dihydropyrimidines for the treatment of HBV infection or HBV-induced diseases” (Janssen Sciences Ireland Unlimited Company, priority 2018, dated 2021) are CC50 and EC50 values, retold here.

A short description of data set [1]: Cytotoxicity determination in HepG2.2.15 cells (CCK-8). To be noted: human, 6 days treatment, CCK-8, highest concentration 100 uM. In kind it is cell-based. From the text: (§1) Example 2: Anti-Viral Assay in HepG2.2.15 Cells
(§2) 1.1. Cell Line • HepG2.2.15 (the HepG2.2.15 cell line can be produced by transfection of the HepG2 cell line as described in Sells, Chen, and Acs 1987 (Proc. Natl. Acad. Sci. USA 84:1005-1009), and the HepG2 cell line is available from ATCC® under number HB-8065™). Reagents • DMEM/F12 (INVITROGEN-11330032) • FBS (GIBCO-10099-141) • Dimethyl sulfoxide(DMSO) (SIGMA-D2650) • Penicillin-streptomycin solution (HYCLONE-SV30010) • NEAA (INVITROGEN-1114050) • L-Glutamine (INVITROGEN-25030081) • Geneticin Selective Antibiotic (G418, 500 mg/ml) (INVITROGEN-10131027) • Trypsinase digestion solution (INVITROGEN-25300062) • CCK8 (BIOLOTE-35004) • QIAamp 96 DNA Blood Kit (12) (QIAGEN-51162) • FastStart Universal Probe Mast Mix (ROCHE-04914058001)
(§3) 2.1. HBV Inhibitory Activity and Cytotoxicity Determination
(§4) Seed the cell HepG2.2.15 cells into 96-well plate in 2% FBS culture medium at the density of 40,000 cells/well and 5,000 cells/well for HBV inhibitory activity and cytotoxicity determination, respectively. After seeding, incubate the cell plates at 37° C., 5% CO2 overnight. The next day, medium containing compounds is added to the cell to treat the cells for 6 days with medium refreshed once in the middle of the treatment. 8 dose points with 3 folds dilution of each compound were adopted and the highest concentration of the compounds is 10 uM and 100 uM for HBV inhibitory activity and cytotoxicity determination, respectively.
After 6 days of compounds treatment, add 20 μl CCK-8 reagents to each well of cytotoxicity assay plates, incubate the plate at 37° C., 5% CO2 for 2.5 h and measure the absorbance at 450 nm wavelength, at the same time read the absorbance at 630 nm wavelength as reference.
(§5) EC50 and CC50 values are calculated by the GRAPHPAD PRISM software.

For a further data set, the system named is HBV. Description: Anti-viral assay in HepG2.2.15 cells: HBV inhibitory activity (HBV DNA in culture medium by q-PCR). In kind it is cell-based. To be noted: Hepatitis B virus, HepG2.2.15, 144 h, HepG2.2.15 cells, 6 days treatment, HBV DNA in culture medium by q-PCR, highest concentration 10 uM; read-out: EC50.
Source text: as §1, §2, §3, §4
The HBV DAN change in the cell culture medium induced by the compounds is measured by q-PCR method. Briefly, the HBV DNA in the culture medium is extracted using QIAamp 96 DNA Blood Kit according to the manual and then quantified by q-PCR using the primers and probe in the table below.
as §5

A word on the CC50: it is the concentration at which the toxic effect on the cells reaches its halfway point. High values mean better tolerance by the cells, low ones harm at low concentration. The term EC50 denotes the concentration giving half of the maximal effect. `COC(=O)C1=C(C2CCN(c3ncc(CC(=O)O)c(C)n3)CC2)NC(c2nccs2)=NC1c1ccc(F)c(F)c1Cl` (single isomer, unassigned) [II-28-B, 2-(2-(4-(6-(2-Chloro-3,4-difluorophenyl)-5-(methoxycarbonyl)-2-(thiazol-2-yl)-3,6-dihydropyrimidin-4-yl)piperidin-1-yl)-4-methylpyrimidin-5-yl)acetic Acid] registered a CC50 at 6 days in data set [1] of 5.33 µM. Also, the EC50 with HBV was less than 4.6 nM.
With `CCOC(=O)C1=C([C@H]2CC[C@H](c3cnn(CC(=O)O)c3)CC2)NC(c2nccs2)=NC1c1ccc(F)c(F)c1Cl` (single isomer, unassigned) [Compound I-28-B, (trans)-2-(4-(4-(6-(2-chloro-3,4-difluorophenyl)-5-(ethoxycarbonyl)-2-(thiazol-2-yl)-3,6-dihydropyrimidin-4-yl)cyclohexyl)-1H-pyrazol-1-yl)acetic Acid], in data set [1], the CC50 at 6 days is 5.28 µM. For the same compound, the EC50 in the data set with HBV turned out to be 33 nM.
Take `CCOC(=O)C1=C(C2CCN(c3cccc(C(=O)O)n3)CC2)NC(c2nccs2)=NC1c1ccc(F)c(F)c1Cl` (single isomer, unassigned) [II-37-B, 6-(4-(6-(2-Chloro-3,4-difluorophenyl)-5-(ethoxycarbonyl)-2-(thiazol-2-yl)-3,6-dihydropyrimidin-4-yl)piperidin-1-yl)picolinic Acid]: in data set [1], the CC50 at 6 days was found to be 6.41 µM. Also, in the data set on HBV, the EC50 turned out to be 61 nM.
The compound `CCOC(=O)C1=C([C@H]2CC[C@H](Cc3nc(C(=O)O)co3)CC2)NC(c2nccs2)=NC1c1ccc(F)c(F)c1Cl` (single isomer, unassigned) [Compound I-15-A, (trans)-2-((4-(6-(2-chloro-3,4-difluorophenyl)-5-(ethoxycarbonyl)-2-(thiazol-2-yl)-3,6-dihydropyrimidin-4-yl)cyclohexyl)methyl)oxazole-4-carboxylic Acid] returned a CC50 at 6 days in data set [1] of 6.27 µM. For the same compound, the EC50 in the data set on HBV turned out to be 66 nM.
The corresponding values for `COC(=O)C1=C(C2CCN(c3ncc(C)c(C(=O)O)n3)CC2)NC(c2nccs2)=NC1c1ccc(F)cc1C` (single isomer, unassigned) [II-7-B, 2-(4-(6-(4-fluoro-2-methylphenyl)-5-(methoxycarbonyl)-2-(thiazol-2-yl)-3,6-dihydropyrimidin-4-yl)piperidin-1-yl)-5-methylpyrimidine-4-carboxylic Acid] are 28.4 µM and 41 nM.
In turn, `CCOC(=O)C1=C(C2CCN(c3ncc(CC)c(C(=O)O)n3)CC2)NC(c2nccs2)=NC1c1ccc(F)c(F)c1Cl` (single isomer, unassigned) [II-60-B, 2-(4-(6-(2-Chloro-3,4-difluorophenyl)-5-(ethoxycarbonyl)-2-(thiazol-2-yl)-3,6-dihydropyrimidin-4-yl)piperidin-1-yl)-5-ethylpyrimidine-4-carboxylic Acid] returned a CC50 at 6 days in data set [1] of 8.92 µM. Also, in the data set on HBV, the EC50 stood at 5.9 nM.
In data set [1], `CCOC(=O)Cc1ccnc(N2CCC(C3=C(C(=O)OC)C(c4ccc(F)cc4Cl)N=C(c4nccs4)N3)CC2)n1` (single isomer, unassigned) [XI-13-S, Methyl 4-(2-chloro-4-fluorophenyl)-6-(1-(4-(2-ethoxy-2-oxoethyl)pyrimidin-2-yl)piperidin-4-yl)-2-(thiazol-2-yl)-1,4-dihydropyrimidine-5-carboxylate] registered a CC50 at 6 days greater than 100 µM. For the same compound, the EC50 in the data set on HBV was determined as 150 nM.
Taken in the same sequence, the figures for `CCOC(=O)C1=C([C@H]2CC[C@H](c3cn(CCC(=O)O)nc3C)CC2)NC(c2nccs2)=NC1c1ccc(F)c(F)c1Cl` (single isomer, unassigned) [Compound I-33-C, (trans)-3-(4-(4-(6-(2-Chloro-3,4-difluorophenyl)-5-(ethoxycarbonyl)-2-(thiazol-2-yl)-3,6-dihydropyrimidin-4-yl)cyclohexyl)-3-methyl-1H-pyrazol-1-yl)propanoic Acid] were 2.97 µM and 7.2 nM.
For `COC(=O)C1=C([C@H]2CC[C@H](c3ncc(C4(C(=O)O)CC4)cn3)CC2)NC(c2nccs2)=NC1c1ccc(F)c(F)c1Cl` (single isomer, unassigned) [Compound I-46-C, 1-(2-((trans)-4-(6-(2-chloro-3,4-difluorophenyl)-5-(methoxycarbonyl)-2-(thiazol-2-yl)-3,6-dihydropyrimidin-4-yl)cyclohexyl)pyrimidin-5-yl)cyclopropanecarboxylic Acid], the CC50 at 6 days in data set [1] stood at 16.1 µM. In the data set with HBV, the EC50 stood at 15 nM.
The corresponding values for `CCOC(=O)C1=C(C2CCN(c3ncc(C)c(C(=O)O)n3)CC2)NC(c2nccs2)=NC1c1cccc(F)c1C` (single isomer, unassigned) [II-2-B, 2-(4-(5-(Ethoxycarbonyl)-6-(3-fluoro-2-methylphenyl)-2-(thiazol-2-yl)-3,6-dihydropyrimidin-4-yl)piperidin-1-yl)-5-methylpyrimidine-4-carboxylic Acid] are 12.4 µM and 8.4 nM.
As to `COC(=O)C1=C(C2CCN(c3nc(C(=O)O)cs3)CC2)NC(c2nccs2)=NC1c1ccc(F)c(F)c1Cl` (single isomer, unassigned) [II-32-B, 2-(4-(6-(2-Chloro-3,4-difluorophenyl)-5-(methoxycarbonyl)-2-(thiazol-2-yl)-3,6-dihydropyrimidin-4-yl)piperidin-1-yl)thiazole-4-carboxylic Acid], the midpoint of cytotoxicity in data set [1], the CC50 at 6 days, lay at 11.1 µM. Further, in the data set with HBV, the EC50 stood at 46 nM.
Taken in the same sequence, the figures for `COC(=O)C1=C(C2CCN(c3nc(C(F)(F)F)c(C(=O)O)s3)CC2)NC(c2nccs2)=NC1c1ccc(F)c(F)c1Cl` (single isomer, unassigned) [II-31-B, 2-(4-(6-(2-Chloro-3,4-difluorophenyl)-5-(methoxycarbonyl)-2-(thiazol-2-yl)-3,6-dihydropyrimidin-4-yl)piperidin-1-yl)-4-(trifluoromethyl)thiazole-5-carboxylic Acid] were 2.61 µM and 25 nM.
The corresponding values for `CCOC(=O)C1=C([C@H]2CC[C@H](c3nc(C(=O)O)co3)CC2)NC(c2nccs2)=NC1c1cccc(F)c1Cl` (single isomer, unassigned) [Compound I-9-B, (trans)-2-(4-(6-(2-chloro-3-fluorophenyl)-5-(ethoxycarbonyl)-2-(thiazol-2-yl)-3,6-dihydropyrimidin-4-yl)cyclohexyl)oxazole-4-carboxylic Acid] are 12.3 µM and 25 nM.
As for `COC(=O)C1=C(C2CCN(c3ncc(CC(=O)O)cn3)CC2)NC(c2nccs2)=NC1c1ccc(F)c(F)c1C` (single isomer, unassigned) [II-1-B, 2-(2-(4-(6-(3,4-Difluoro-2-methylphenyl)-5-(methoxycarbonyl)-2-(thiazol-2-yl)-3,6-dihydropyrimidin-4-yl)piperidin-1-yl)pyrimidin-5-yl)acetic Acid], it took 4.97 µM to reach half-maximal cytotoxicity in data set [1] (CC50 at 6 days). Also, in the data set on HBV, the EC50 is less than 4.6 nM.
The corresponding values for `CCOC(=O)C1=C(C2CCN(c3ncc(OCC)c(C(=O)O)n3)CC2)NC(c2nccs2)=NC1c1ccc(F)c(F)c1Cl` (single isomer, unassigned) [II-96-B, 2-(4-(6-(2-chloro-3,4-difluorophenyl)-5-(ethoxycarbonyl)-2-(thiazol-2-yl)-3,6-dihydropyrimidin-4-yl)piperidin-1-yl)-5-ethoxypyrimidine-4-carboxylic Acid] are 16.3 µM and 5.1 nM.
The corresponding values for `CCOC(=O)C1=C(C2CCC(c3cnn(C4CC(C(=O)O)C4)c3)CC2)NC(c2nccs2)=NC1c1ccc(F)c(F)c1Cl` (stereo not shown) [Compound I-34, 3-(4-(4-(6-(2-Chloro-3,4-difluorophenyl)-5-(ethoxycarbonyl)-2-(thiazol-2-yl)-3,6-dihydropyrimidin-4-yl)cyclohexyl)-1H-pyrazol-1-yl)cyclobutanecarboxylic acid] are 2.79 µM and 55 nM.
Compound `CCOC(=O)C1=C(C2CCN(c3ncc(N(C)C)c(C(=O)O)n3)CC2)NC(c2nccs2)=NC1c1cccc(F)c1Br` (single isomer, unassigned) [II-97-B, 2-(4-(6-(2-Bromo-3-fluorophenyl)-5-(ethoxycarbonyl)-2-(thiazol-2-yl)-3,6-dihydropyrimidin-4-yl)piperidin-1-yl)-5-(dimethylamino)pyrimidine-4-carboxylic Acid] gave a CC50 at 6 days in data set [1] of 27.6 µM. The EC50 in the data set on HBV came out at 14 nM.
